The text below walks through data of patent publication US20250120989A1, “BRIDGED TRICYCLIC CARBAMOYLPYRIDONE COMPOUNDS AND USES THEREOF” (priority 2023, published 2025).

Values after ≈ are worked out from the molar mass of the structure shown.

In series [1] the test system is HIV-1 (IIIB). The experiment in a line: microbe, parasite or virus in culture. In kind it is cell-based. The note with it: Human immunodeficiency virus 1, MT4, 120 h; HIV-1 (IIIB) replication in MT-4 cells, 5 days, Cell Titer Glo; read-out: MT4 EC50. Background: Cellular ATP, detected with luciferase, serves as a proxy for viable cell number.
The nature of series [2]: in vitro. Particulars: human, uninfected MT-4 cells.
The nature of series [3]: physchem. Particulars: FaSSIF, 23 °C, thermodynamic from solid.

As a reminder, the EC50 is the midpoint of the concentration-response curve. As a reminder, the CC50 is the concentration giving 50% cytotoxicity. Read a high CC50 as better tolerance by the cells. A word on the thermodynamic solubility: it is the concentration in solution at equilibrium with solid. Take `COC1=NO[C@@]2(CC[C@H](C)N3C[C@H]2n2cc(C(=O)NCc4ccc(F)cc4F)c(=O)c(OCOC(=O)OCCN(CC(=O)O)C(=O)OCOP(=O)(O)O)c2C3=O)C1` [Compound 8, N-(2-((((((3′S,5S,7′R)-10′-((2,4-difluorobenzyl)carbamoyl)-3-methoxy-3′-methyl-1′,11′-dioxo-1′,4′,5′,11′-tetrahydro-3′H,4H,7′H-spiro[isoxazole-5,6′-[2,7]methanopyrido[1,2-a][1,4]diazonin]-12′-yl)oxy)methoxy)carbonyl)oxy)ethyl)-N-(((phosphonooxy)methoxy)carbonyl)glycine]: in series [1], the EC50 turned out to be 0.00204 µM. The compound also had a CC50 at 5 days in series [2] of 17.8 µM. The compound also displayed a thermodynamic solubility at 24 h in series [3] of 3020 µg/mL (≈ 3.63 mM).

Regarding `CC1=NO[C@@]2(CC[C@H](C)N3C[C@H]2n2cc(C(=O)NCc4ccc(F)cc4F)c(=O)c(OCOC(=O)OCC(C)(C)COP(=O)(O)O)c2C3=O)C1` [Compound 12, (((3′S,5S,7′R)-10′-((2,4-difluorobenzyl)carbamoyl)-3,3′-dimethyl-1′,11′-dioxo-1′,4′,5′,11′-tetrahydro-3′H,4H,7′H-spiro[isoxazole-5,6′-[2,7]methanopyrido[1,2-a][1,4]diazonin]-12′-yl)oxy)methyl (2,2-dimethyl-3-(phosphonooxy)propyl) carbonate], the EC50 in series [1] stood at 0.00201 µM. The same compound had a CC50 at 5 days in series [2] of 14 µM. The compound further registered a solubility (thermodynamic) at 24 h in series [3] of 5280 µg/mL (≈ 7.27 mM).

For the compound `CC1=NO[C@@]2(CC[C@H](C)N3C[C@H]2n2cc(C(=O)NCc4ccc(F)cc4F)c(=O)c(OC(=O)OCC(C)(C)COP(=O)(O)O)c2C3=O)C1` [Compound 13, (3′S,5S,7′R)-10′-((2,4-difluorobenzyl)carbamoyl)-3,3′-dimethyl-1′,11′-dioxo-1′,4′,5′,11′-tetrahydro-3′H,4H,7′H-spiro[isoxazole-5,6′-[2,7]methanopyrido[1,2-a][1,4]diazonin]-12′-yl (2,2-dimethyl-3-(phosphonooxy)propyl) carbonate], the EC50 in series [1] stood at 0.00198 µM. In series [2], this compound gave a CC50 at 5 days of 14 µM. Besides, the thermodynamic solubility at 24 h in series [3] was 4380 µg/mL (≈ 6.29 mM).

Regarding `CC1=NO[C@@]2(CC[C@H](C)N3C[C@H]2n2cc(C(=O)NCc4ccc(F)cc4F)c(=O)c(OCOC(=O)OC[C@H](C)OP(=O)(O)O)c2C3=O)C1` [Compound 17, (((3′S,5S,7′R)-10′-((2,4-difluorobenzyl)carbamoyl)-3,3′-dimethyl-1′,11′-dioxo-1′,4′,5′,11′-tetrahydro-3′H,4H,7′H-spiro[isoxazole-5,6′-[2,7]methanopyrido[1,2-a][1,4]diazonin]-12′-yl)oxy)methyl ((S)-2-(phosphonooxy)propyl) carbonate], the EC50 in series [1] is 0.00205 µM. The same compound showed a 50% cytotoxic concentration (CC50) at 5 days in series [2] of 13.7 µM. Besides, the thermodynamic solubility at 24 h in series [3] was 4590 µg/mL (≈ 6.57 mM).

For the compound `CC1=NO[C@@]2(CC[C@H](C)N3C[C@H]2n2cc(C(=O)NCc4ccc(F)cc4F)c(=O)c(OCOC(=O)O[C@@H](C)COP(=O)(O)O)c2C3=O)C1` [Compound 19, (((3′S,5S,7′R)-10′-((2,4-difluorobenzyl)carbamoyl)-3,3′-dimethyl-1′,11′-dioxo-1′,4′,5′,11′-tetrahydro-3′H,4H,7′H-spiro[isoxazole-5,6′-[2,7]methanopyrido[1,2-a][1,4]diazonin]-12′-yl)oxy)methyl ((S)-1-(phosphonooxy)propan-2-yl) carbonate], the concentration giving a half-maximal response (EC50) in series [1] was 0.00235 µM. Further, the CC50 at 5 days in series [2] was determined as 12.2 µM. The compound also displayed a solubility (thermodynamic) at 24 h in series [3] of 5060 µg/mL (≈ 7.24 mM).

For `CC1=NO[C@@]2(CC[C@H](C)N3C[C@H]2n2cc(C(=O)NCc4ccc(F)cc4F)c(=O)c(OCOC(=O)N(C)CCN(CC(=O)O)C(=O)OCOP(=O)(O)O)c2C3=O)C1` [Compound 21, N-(2-((((((3′S,5S,7′R)-10′-((2,4-difluorobenzyl)carbamoyl)-3,3′-dimethyl-1′,11′-dioxo-1′,4′,5′,11′-tetrahydro-3′H,4H,7′H-spiro[isoxazole-5,6′-[2,7]methanopyrido[1,2-a][1,4]diazonin]-12′-yl)oxy)methoxy)carbonyl)(methyl)amino)ethyl)-N-(((phosphonooxy)methoxy)carbonyl)glycine], the EC50 in series [1] stood at 0.0015 µM. Besides, the CC50 at 5 days in series [2] is 15.2 µM. In addition, in series [3], the thermodynamic solubility at 24 h is 5040 µg/mL (≈ 6.08 mM).

With `CC1=NO[C@@]2(CC[C@H](C)N3C[C@H]2n2cc(C(=O)NCc4ccc(F)cc4F)c(=O)c(OCOC(=O)OC[C@@H](C)OP(=O)(O)O)c2C3=O)C1` [Compound 22, (((3′S,5S,7′R)-10′-((2,4-difluorobenzyl)carbamoyl)-3,3′-dimethyl-1′,11′-dioxo-1′,4′,5′,11′-tetrahydro-3′H,4H,7′H-spiro[isoxazole-5,6′-[2,7]methanopyrido[1,2-a][1,4]diazonin]-12′-yl)oxy)methyl ((R)-2-(phosphonooxy)propyl) carbonate], the EC50 in series [1] was found to be 0.00193 µM. In series [2], this compound displayed a CC50 at 5 days of 9.78 µM. Besides, the solubility (thermodynamic) at 24 h in series [3] was found to be 4180 µg/mL (≈ 5.99 mM).

Take `COC1=NO[C@@]2(CC[C@H](C)N3C[C@H]2n2cc(C(=O)NCc4ccc(F)cc4F)c(=O)c(OCOC(=O)OC[C@H](C)OP(=O)(O)O)c2C3=O)C1` [Compound 23, (((3′S,5S,7′R)-10′-((2,4-difluorobenzyl)carbamoyl)-3-methoxy-3′-methyl-1′,11′-dioxo-1′,4′,5′,11′-tetrahydro-3′H,4H,7′H-spiro[isoxazole-5,6′-[2,7]methanopyrido[1,2-a][1,4]diazonin]-12′-yl)oxy)methyl ((S)-2-(phosphonooxy)propyl) carbonate]: the EC50 in series [1] stood at 0.00233 µM. The compound further gave a CC50 at 5 days in series [2] of 14.8 µM. In addition, the solubility (thermodynamic) at 24 h in series [3] worked out at 4400 µg/mL (≈ 6.16 mM).

For `COC1=NO[C@@]2(CC[C@H](C)N3C[C@H]2n2cc(C(=O)NCc4ccc(F)cc4F)c(=O)c(OCOC(=O)O[C@@H](C)COP(=O)(O)O)c2C3=O)C1` [Compound 24, (((3′S,5S,7′R)-10′-((2,4-difluorobenzyl)carbamoyl)-3-methoxy-3′-methyl-1′,11′-dioxo-1′,4′,5′,11′-tetrahydro-3′H,4H,7′H-spiro[isoxazole-5,6′-[2,7]methanopyrido[1,2-a][1,4]diazonin]-12′-yl)oxy)methyl ((S)-1-(phosphonooxy)propan-2-yl) carbonate], in series [1], the EC50 was determined as 0.00229 µM. The CC50 at 5 days in series [2] turned out to be 17.1 µM. For the same compound, in series [3], the solubility (thermodynamic) at 24 h is 5000 µg/mL (≈ 7 mM).

On to `CC[C@H](COP(=O)(O)O)OC(=O)OCOc1c2n(cc(C(=O)NCc3ccc(F)cc3F)c1=O)[C@@H]1CN(C2=O)[C@@H](C)CC[C@]12CC(C)=NO2` [Compound 25, (((3′S,5S,7′R)-10′-((2,4-difluorobenzyl)carbamoyl)-3,3′-dimethyl-1′,11′-dioxo-1′,4′,5′,11′-tetrahydro-3′H,4H,7′H-spiro[isoxazole-5,6′-[2,7]methanopyrido[1,2-a][1,4]diazonin]-12′-yl)oxy)methyl ((R)-1-(phosphonooxy)butan-2-yl) carbonate], for which the EC50 in series [1] was found to be 0.00221 µM. This compound also registered a CC50 at 5 days in series [2] of 13.9 µM. In series [3], this compound gave a solubility (thermodynamic) at 24 h of 5130 µg/mL (≈ 7.2 mM).

Consider `CC[C@@H](COP(=O)(O)O)OC(=O)OCOc1c2n(cc(C(=O)NCc3ccc(F)cc3F)c1=O)[C@@H]1CN(C2=O)[C@@H](C)CC[C@]12CC(C)=NO2` [Compound 26, (((3′S,5S,7′R)-10′-((2,4-difluorobenzyl)carbamoyl)-3,3′-dimethyl-1′,11′-dioxo-1′,4′,5′,11′-tetrahydro-3′H,4H,7′H-spiro[isoxazole-5,6′-[2,7]methanopyrido[1,2-a][1,4]diazonin]-12′-yl)oxy)methyl ((S)-1-(phosphonooxy)butan-2-yl) carbonate], for which the EC50 in series [1] is 0.00271 µM. Also, the CC50 at 5 days in series [2] amounted to 13.5 µM. In addition, the thermodynamic solubility at 24 h in series [3] came out at 4760 µg/mL (≈ 6.69 mM).

For the compound `CC1=NO[C@@]2(CC[C@H](C)N3C[C@H]2n2cc(C(=O)NCc4ccc(F)cc4F)c(=O)c(OCOC(=O)O[C@H](C)[C@@H](C)OP(=O)(O)O)c2C3=O)C1` [Compound 27, (((3′S,5S,7′R)-10′-((2,4-difluorobenzyl)carbamoyl)-3,3′-dimethyl-1′,11′-dioxo-1′,4′,5′,11′-tetrahydro-3′H,4H,7′H-spiro[isoxazole-5,6′-[2,7]methanopyrido[1,2-a][1,4]diazonin]-12′-yl)oxy)methyl ((2R,3R)-3-(phosphonooxy)butan-2-yl) carbonate], the EC50 in series [1] was found to be 0.00247 µM. It took 18.7 µM to reach half-maximal cytotoxicity in series [2] (CC50 at 5 days). The thermodynamic solubility at 24 h in series [3] was 4660 µg/mL (≈ 6.55 mM).

Turning to `CC1=NO[C@@]2(CC[C@H](C)N3C[C@H]2n2cc(C(=O)NCc4ccc(F)cc4F)c(=O)c(OCOC(=O)O[C@@H](C)[C@H](C)OP(=O)(O)O)c2C3=O)C1` [Compound 28, (((3′S,5S,7′R)-10′-((2,4-difluorobenzyl)carbamoyl)-3,3′-dimethyl-1′,11′-dioxo-1′,4′,5′,11′-tetrahydro-3′H,4H,7′H-spiro[isoxazole-5,6′-[2,7]methanopyrido[1,2-a][1,4]diazonin]-12′-yl)oxy)methyl ((2S,3S)-3-(phosphonooxy)butan-2-yl) carbonate], the EC50 in series [1] turned out to be 0.00485 µM. In series [2], this compound came in with a CC50 at 5 days of 28.9 µM. In series [3], this compound showed a solubility (thermodynamic) at 24 h of 4400 µg/mL (≈ 6.18 mM).

Consider `COC1=NO[C@@]2(CC[C@H](C)N3C[C@H]2n2cc(C(=O)NCc4ccc(F)cc4F)c(=O)c(OCOC(=O)O[C@@H](C)[C@H](C)OP(=O)(O)O)c2C3=O)C1` [Compound 29, (((3′S,5S,7′R)-10′-((2,4-difluorobenzyl)carbamoyl)-3-methoxy-3′-methyl-1′,11′-dioxo-1′,4′,5′,11′-tetrahydro-3′H,4H,7′H-spiro[isoxazole-5,6′-[2,7]methanopyrido[1,2-a][1,4]diazonin]-12′-yl)oxy)methyl ((2S,3S)-3-(phosphonooxy)butan-2-yl) carbonate], for which, in series [1], the EC50 was determined as 0.00487 µM. In addition, in series [2], the CC50 at 5 days was found to be 29 µM. The solubility (thermodynamic) at 24 h in series [3] was found to be 4880 µg/mL (≈ 6.7 mM).
